Legend:
duck salad = test: Test B flood test duck salad; type: in vivo, Heteranthera limosa
Procedure, shortened: (§1)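 Read-out is a visual response score from 0 (no effect) to 10 (complete control), assigned by comparison with untreated controls. Treatment was applied at the 2-leaf stage, and plants stayed in the greenhouse for twelve to sixteen days before scoring.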

giant foxtail = test: Test B pre/postemergence giant foxtail; type: in vivo, Setaria faberii; settings: for Giant foxtail plant response rating: scale of 0 to 10 where 0 is no effect and 10 is complete control
Procedure, shortened: (§2)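 Herbicidal effect was estimated by eye on a ten-point control scale after plants spent twelve to sixteen days in a greenhouse following soil or foliar treatment. Foliar sprays targeted plants at one to four leaves; all doses were formulated in a non-phytotoxic solvent with surfactant.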

velvetleaf = test: Test B pre/postemergence velvetleaf; type: in vivo, Abutilon theophrasti; settings: for Velvetleaf plant response rating: scale of 0 to 10 where 0 is no effect and 10 is complete control
Procedure, shortened: as §2

sugar beet = test: Test B pre/postemergence sugar beet; type: in vivo, Beta vulgaris; settings: for Sugarbeets plant response rating: scale of 0 to 10 where 0 is no effect and 10 is complete control
Procedure, shortened: as §2

purple nutsedge = test: Test B pre/postemergence purple nutsedge; type: in vivo, Cyperus rotundus; settings: for Nutsedge plant response rating: scale of 0 to 10 where 0 is no effect and 10 is complete control
Procedure, shortened: as §2

rice = test: Test B flood test rice; type: in vivo, Oryza sativa
Procedure, shortened: as §1

soybean = test: Test B pre/postemergence soybean; type: in vivo, Glycine max; settings: for Soybean plant response rating: scale of 0 to 10 where 0 is no effect and 10 is complete control
Procedure, shortened: as §2

bamyardgrass = test: Test B flood test barnyardgrass; type: in vivo, Echinochloa crus-galli
Procedure, shortened: as §1

morningglory = test: Test B pre/postemergence morningglory; type: in vivo, Ipomoea hederacea; settings: for Morningglory plant response rating: scale of 0 to 10 where 0 is no effect and 10 is complete control
Procedure, shortened: as §2

rape = test: Test B pre/postemergence rape; type: in vivo, Brassica napus; settings: for Rape plant response rating: scale of 0 to 10 where 0 is no effect and 10 is complete control
Procedure, shortened: as §2

surinam grass = test: Test B pre/postemergence surinam grass; type: in vivo, Brachiaria decumbens
Procedure, shortened: as §2

wheat = test: Test B pre/postemergence wheat; type: in vivo, Triticum aestivum; settings: for Wheat plant response rating: scale of 0 to 10 where 0 is no effect and 10 is complete control
Procedure, shortened: as §2

cocklebur = test: Test B pre/postemergence cocklebur; type: in vivo, Xanthium strumarium; settings: for Cocklebur plant response rating: scale of 0 to 10 where 0 is no effect and 10 is complete control
Procedure, shortened: as §2

blackgrass = test: Test B pre/postemergence blackgrass; type: in vivo, Alopecurus myosuroides
Procedure, shortened: as §2

bedstraw = test: Test B pre/postemergence bedstraw; type: in vivo, Galium aparine
Procedure, shortened: as §2

pigweed = test: Test B pre/postemergence pigweed; type: in vivo, Amaranthus retroflexus; settings: for Redroot pigweed plant response rating: scale of 0 to 10 where 0 is no effect and 10 is complete control
Procedure, shortened: as §2

crabgrass = test: Test B pre/postemergence crabgrass; type: in vivo, Digitaria sanguinalis; settings: for Crabgrass plant response rating: scale of 0 to 10 where 0 is no effect and 10 is complete control
Procedure, shortened: as §2

smallflower flatsedge = test: Test B flood test smallflower flatsedge; type: in vivo, Cyperus difformis
Procedure, shortened: as §1

corn = test: Test B pre/postemergence corn; type: in vivo, Zea mays; settings: for Corn plant response rating: scale of 0 to 10 where 0 is no effect and 10 is complete control
Procedure, shortened: as §2

wild oat = test: Test B pre/postemergence wild oat; type: in vivo, Avena fatua; settings: for Wild oats plant response rating: scale of 0 to 10 where 0 is no effect and 10 is complete control
Procedure, shortened: as §2

[1] = Postemergence (flood test), Rate 125 g/ha, scale 0 to 10, 0 is no effect, 10 is complete control
[2] = Rate 62 g/ha, Postemergence (flood test species), scale of 0 to 10 where 0 is no effect and 10 is complete control
[3] = Rate 500 g/ha, listed under Postemergence (flood test species), scale 0 to 10, 0 no effect, 10 complete control
[4] = Postemergence, Rate 125 g/ha, scale 0 to 10, 0 is no effect, 10 is complete control
[5] = Preemergence, Rate 62 g/ha, scale 0 to 10 (0 no effect, 10 complete control)
[6] = Rate 500 g/ha, Postemergence, scale 0 to 10, 0 no effect, 10 complete control
[7] = Preemergence, Rate 250 g/ha, scale of 0 to 10 where 0 is no effect and 10 is complete control
[8] = Preemergence, Rate 500 g/ha, scale of 0 to 10 where 0 is no effect and 10 is complete control
[9] = Rate 62 g/ha, Postemergence, scale of 0 to 10 where 0 is no effect and 10 is complete control
[10] = Rate 250 g/ha, Postemergence, scale of 0 to 10 where 0 is no effect and 10 is complete control

CC(C)C(C)n1c(=O)on(C(=O)N(c2ccccc2)C(C)C)c1=O (centres unmarked) [Compound 355]
Plant response rating, Ducksalad (duck salad; [1]): 0
Ducksalad plant response rating (duck salad; [2]): 0
Plant response rating, Ducksalad (duck salad; [3]): 0
Plant response rating, Giant foxtail (giant foxtail; [4]): 2
Plant response rating, Giant foxtail (giant foxtail; [5]): 10
Giant foxtail plant response rating (0 to 10 scale) (giant foxtail; Preemergence, Rate 125 g/ha): 10
Giant foxtail plant response rating (giant foxtail; Preemergence, Rate 250 g/ha): 10
Giant foxtail plant response rating (giant foxtail; Preemergence, Rate 500 g/ha): 10
Giant foxtail plant response rating (giant foxtail; Rate 62 g/ha, Postemergence): 2
Plant response rating, Giant foxtail (giant foxtail; [6]): 8
Plant response rating, Velvetleaf (velvetleaf; [4]): 0
Plant response rating, Velvetleaf (velvetleaf; [5]): 0
Velvetleaf plant response rating (0 to 10 scale) (velvetleaf; Preemergence, Rate 125 g/ha): 2
Velvetleaf plant response rating (velvetleaf; Preemergence, Rate 250 g/ha): 3
Velvetleaf plant response rating (velvetleaf; Preemergence, Rate 500 g/ha): 5
Velvetleaf plant response rating (velvetleaf; Rate 62 g/ha, Postemergence): 0
Plant response rating, Velvetleaf (velvetleaf; [6]): 2
Plant response rating, Sugarbeets (sugar beet; [4]): 0
Plant response rating, Sugarbeets (sugar beet; [5]): 0
Sugarbeets plant response rating (0 to 10 scale) (sugar beet; Preemergence, Rate 125 g/ha): 0
Sugarbeets plant response rating (sugar beet; Preemergence, Rate 250 g/ha): 2
Sugarbeets plant response rating (sugar beet; Preemergence, Rate 500 g/ha): 3
Sugarbeets plant response rating (sugar beet; Rate 62 g/ha, Postemergence): 0
Plant response rating, Sugarbeets (sugar beet; [6]): 0
Plant response rating, Nutsedge (purple nutsedge; [4]): 0
Plant response rating, Nutsedge (purple nutsedge; [5]): 0
Nutsedge plant response rating (0 to 10 scale) (purple nutsedge; Preemergence, Rate 125 g/ha): 0
Nutsedge plant response rating (purple nutsedge; Preemergence, Rate 250 g/ha): 0
Nutsedge plant response rating (purple nutsedge; Preemergence, Rate 500 g/ha): 0
Nutsedge plant response rating (purple nutsedge; Rate 62 g/ha, Postemergence): 0
Plant response rating, Nutsedge (purple nutsedge; [6]): 0
Plant response rating, Rice (rice; [1]): 0
Rice plant response rating (rice; [2]): 0
Plant response rating, Rice (rice; [3]): 0
Plant response rating, Soybean (soybean; [4]): 2
Plant response rating, Soybean (soybean; [5]): 0
Soybean plant response rating (0 to 10 scale) (soybean; Preemergence, Rate 125 g/ha): 0
Soybean plant response rating (soybean; Preemergence, Rate 250 g/ha): 0
Soybean plant response rating (soybean; Preemergence, Rate 500 g/ha): 0
Soybean plant response rating (soybean; Rate 62 g/ha, Postemergence): 1
Plant response rating, Soybean (soybean; [6]): 3
Plant response rating, Barnyardgrass (bamyardgrass; [1]): 8
Barnyardgrass plant response rating (bamyardgrass; [2]): 1
Plant response rating, Barnyardgrass (bamyardgrass; Rate 250 g/ha, Postemergence (flood test species), scale of 0 to 10 where 0 is no effect and 10 is complete control): 8
Plant response rating, Barnyardgrass (bamyardgrass; [3]): 8
Plant response rating, Morningglory (morningglory; [4]): 5
Plant response rating, Morningglory (morningglory; [5]): 0
Morningglory plant response rating (0 to 10 scale) (morningglory; Preemergence, Rate 125 g/ha): 0
Morningglory plant response rating (morningglory; Preemergence, Rate 250 g/ha): 0
Morningglory plant response rating (morningglory; Preemergence, Rate 500 g/ha): 2
Morningglory plant response rating (morningglory; Rate 62 g/ha, Postemergence): 2
Plant response rating, Morningglory (morningglory; [6]): 8
Plant response rating, Rape (rape; [4]): 0
Plant response rating, Rape (rape; [5]): 0
Rape plant response rating (0 to 10 scale) (rape; Preemergence, Rate 125 g/ha): 0
Rape plant response rating (rape; Preemergence, Rate 250 g/ha): 0
Rape plant response rating (rape; Preemergence, Rate 500 g/ha): 5
Rape plant response rating (rape; Rate 62 g/ha, Postemergence): 0
Plant response rating, Rape (rape; [6]): 0
Plant response rating, B. signalgrass (surinam grass; [4]): 0
Plant response rating, B. signalgrass (surinam grass; [5]): 0
B. signalgrass plant response rating (0 to 10 scale, 0 is no effect, 10 is complete control) (surinam grass; Preemergence, Rate 125 g/ha): 2
B. signalgrass plant response rating (surinam grass; [7]): 3
B. signalgrass plant response rating (surinam grass; [8]): 6
B. signalgrass plant response rating (surinam grass; [9]): 0
Plant response rating, B. signalgrass (surinam grass; [10]): 0
Plant response rating, B. signalgrass (surinam grass; [6]): 2
Plant response rating, Wheat (wheat; [4]): 2
Plant response rating, Wheat (wheat; [5]): 0
Wheat plant response rating (0 to 10 scale) (wheat; Preemergence, Rate 125 g/ha): 0
Wheat plant response rating (wheat; Preemergence, Rate 250 g/ha): 0
Wheat plant response rating (wheat; Preemergence, Rate 500 g/ha): 2
Wheat plant response rating (wheat; Rate 62 g/ha, Postemergence): 0
Plant response rating, Wheat (wheat; [6]): 3
Plant response rating, Cocklebur (cocklebur; [4]): 0
Plant response rating, Cocklebur (cocklebur; [5]): 0
Cocklebur plant response rating (0 to 10 scale) (cocklebur; Preemergence, Rate 125 g/ha): 0
Cocklebur plant response rating (cocklebur; Preemergence, Rate 250 g/ha): 0
Cocklebur plant response rating (cocklebur; Rate 62 g/ha, Postemergence): 0
Plant response rating, Cocklebur (cocklebur; [6]): 4
Plant response rating, Blackgrass (blackgrass; [4]): 3
Plant response rating, Blackgrass (blackgrass; [5]): 2
Blackgrass plant response rating (0 to 10 scale) (blackgrass; Preemergence, Rate 125 g/ha): 4
Blackgrass plant response rating (blackgrass; [7]): 5
Blackgrass plant response rating (blackgrass; [8]): 10
Blackgrass plant response rating (blackgrass; [9]): 3
Plant response rating, Blackgrass (blackgrass; [10]): 6
Plant response rating, Blackgrass (blackgrass; [6]): 6
Plant response rating, Bedstraw (bedstraw; [4]): 0
Plant response rating, Bedstraw (bedstraw; [5]): 0
Bedstraw plant response rating (bedstraw; [7]): 0
Bedstraw plant response rating (bedstraw; [8]): 9
Bedstraw plant response rating (bedstraw; [9]): 0
Plant response rating, Bedstraw (bedstraw; [10]): 0
Plant response rating, Bedstraw (bedstraw; [6]): 0
Plant response rating, Redroot pigweed (pigweed; [4]): 0
Redroot pigweed plant response rating (0 to 10 scale) (pigweed; Preemergence, Rate 125 g/ha): 7
Redroot pigweed plant response rating (pigweed; Preemergence, Rate 250 g/ha): 10
Redroot pigweed plant response rating (pigweed; Preemergence, Rate 500 g/ha): 10
Redroot pigweed plant response rating (pigweed; Rate 62 g/ha, Postemergence): 0
Plant response rating, Redroot pigweed (pigweed; [6]): 3
Plant response rating, Crabgrass (crabgrass; [4]): 0
Plant response rating, Crabgrass (crabgrass; [5]): 4
Crabgrass plant response rating (0 to 10 scale) (crabgrass; Preemergence, Rate 125 g/ha): 10
Crabgrass plant response rating (crabgrass; Preemergence, Rate 250 g/ha): 10
Crabgrass plant response rating (crabgrass; Preemergence, Rate 500 g/ha): 10
Crabgrass plant response rating (crabgrass; Rate 62 g/ha, Postemergence): 0
Plant response rating, Crabgrass (crabgrass; [6]): 2
Plant response rating, S. Flatsedge (smallflower flatsedge; [1]): 2
S. Flatsedge plant response rating (smallflower flatsedge; [2]): 0
Plant response rating, S. Flatsedge (smallflower flatsedge; [3]): 8
Plant response rating, Corn (corn; [4]): 0
Plant response rating, Corn (corn; [5]): 0
Corn plant response rating (0 to 10 scale) (corn; Preemergence, Rate 125 g/ha): 0
Corn plant response rating (corn; Preemergence, Rate 250 g/ha): 3
Corn plant response rating (corn; Preemergence, Rate 500 g/ha): 4
Corn plant response rating (corn; Rate 62 g/ha, Postemergence): 0
Plant response rating, Corn (corn; [6]): 0
Plant response rating, Wild oats (wild oat; [4]): 3
Plant response rating, Wild oats (wild oat; [5]): 0
Wild oats plant response rating (0 to 10 scale) (wild oat; Preemergence, Rate 125 g/ha): 0
Wild oats plant response rating (wild oat; Preemergence, Rate 250 g/ha): 0
Wild oats plant response rating (wild oat; Preemergence, Rate 500 g/ha): 9
Wild oats plant response rating (wild oat; Rate 62 g/ha, Postemergence): 0
Plant response rating, Wild oats (wild oat; [6]): 5

— patent US6737383B1, “Herbicidal oxadiazolidines” (priority 1999, dated 2004)
